Drawing on patent US11178870B2 (priority 2017, dated 2021), this text covers pest or weed control for 2 compounds.

For one test, the system named is Botrytis cinerea. Put plainly: Test Example B: Gray mold on tomato. It counts as in vivo. The following applies: Table 7, Test B, read-out: control value, Test B (gray mold on tomato).
The test system of the next test is Magnaporthe grisea. The experiment in a line: whole plant or invertebrate. Format: in vivo. The note with it: Pyricularia oryzae, in Oryza sativa, read-out: control value, Test A (blast on rice).
In the next test the test system is Alternaia brassicicola. Put plainly: Test Example C: Alternaria sooty spot on cabbage. Format: in vivo. The note with it: Brassica oleracea; Table 7, Test C; read-out: control value, Test C (Alternaria sooty spot on cabbage).
The test system of the next test is Plasmopara viticola. The experiment in a line: Test Example G: Downy mildew on vine. It counts as in vivo. The note with it: 250 ppm sprayed (2.5 ml/pot) before inoculation, assessed 7 to 10 days after inoculation, read-out: control value, Test G (downy mildew on vine).
In another test the test system is Phytophthora infestans. The experiment in a line: whole plant or invertebrate. Format: in vivo. The following applies: in Solanum lycopersicum, read-out: control value, Test F (late blight on tomato).
The next test relates to Puccinia recondita. Put plainly: Test Example E: Brown rust on wheat. Format: in vivo. The note with it: Table 7, Test E, read-out: control value, Test E (brown rust on wheat).
In test [1] the test system is Colletotrichum orbiculare. The experiment in a line: whole plant or invertebrate. The note with it: in Cucumis sativus, read-out: control value, Test H (anthracnose on cucumber).
Experimental: Seeds of a test plant (cucumber variety: Sagami Hanjiro) were planted and cultivated until the first leaf appeared. In the test, the compounds of the present invention were dissolved into a dimethyl sulfoxide-methanol mixture solution (volume ratio: 9/1), and the resultant solutions were diluted with well water to a concentration of 250 ppm. The thus-obtained dilutions were sprayed to the test plant (2.5 ml/pot). After the dilutions dried, a conidial suspension (2-4×10^5 conidia/ml) of Colletotrichum orbiculare was inoculated to the plant by spraying. After the inoculation, the plant was kept in a mist chamber at room temperature of 20 to 23° C. for about 24 hours to promote the onset of disease. The disease development was investigated 6 to 10 days after the inoculation, and the effectiveness of the dilutions was evaluated.
Disease development in Test Example described above was evaluated in increments of 0.05 by setting 0 as no incidence of disease and 3 as disease development in a plant of untreated group. In addition, control values were calculated using the following equation based on disease development.
Control value=100 {1−(n/3)}
n=Disease development of each treated groups
Test [2] has as its system Blumeria graminis f. sp. hordei. Put plainly: Test Example D: Powdery mildew on barley. It counts as in vivo. The following applies: Table 7, Test D, read-out: control value, Test D (powdery mildew on barley).

Where only a bound is given, the exact number is not on record here.

As for `CCn1c(-c2ccc(F)cc2F)c(-n2cc(C)cn2)cc(Br)c1=O` [compound 226, 3-bromo-6-(2,4-difluorophenyl)-1-ethyl-5-(4-methyl-1H-pyrazol-1-yl)pyridin-2(1H)-one], the pest or weed control at 250 µg/mL with Botrytis cinerea is over 50%; in the test with Magnaporthe grisea it was over 50%; in the test with Alternaia brassicicola it was over 50%; in the test with Phytophthora infestans it was under 50%; in the test with Puccinia recondita, over 50%; in test [2], over 50%. The pest or weed control at 250 ppm (in the test on Plasmopara viticola; in test [1]) was over 50% each time.
Take `CCn1c(-c2c(F)cc(F)cc2F)c(-n2cc(Cl)cn2)cc(C)c1=O` [compound 206, 5-(4-chloro-1H-pyrazol-1-yl)-1-ethyl-3-methyl-6-(2,4,6-trifluoro-phenyl)pyridin-2(1H)-one]: the pest or weed control at 250 µg/mL was over 50% in the test on Botrytis cinerea; over 50% in the test on Magnaporthe grisea; over 50% in the test on Alternaia brassicicola; under 50% with Phytophthora infestans; over 50% with Puccinia recondita; over 50% in test [2]. Moreover, the pest or weed control at 250 ppm is under 50% with Plasmopara viticola and over 50% in test [1].
